According to ChEMBL document CHEMBL1909294, “Translating clinical findings into knowledge in drug safety evaluation--drug induced liver injury prediction system (DILIps)” (PLoS Comput Biol, 2011):

Key:
[1] = test system: Hepatotoxicity;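 on HepSE Combined Scores: combined hepatic side effect score as listed in the training data of the Drug Induced Liver Injury Prediction System (DILIps)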;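 on HepSE cholecystitis: Cholecystitis-related hepatic side effect score drawn from the DILIps (drug-induced liver injury prediction) training data set; call rule not given here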;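 on HepSE cirrhosis: cirrhosis hepatic side effect score taken from the DILIps (drug-induced liver injury prediction) training set; call rule not given here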; on HepSE hepatic failure: call rule not given here;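 on HepSE hepatic necrosis: score of hepatic side effects for hepatic necrosis, drawn from the training data of DILIps, a prediction system for drug-induced liver injury; call rule not given here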;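 on HepSE hepatomegaly: hepatic side effect score for hepatomegaly, taken from the training set of the DILIps drug-induced liver injury prediction system; call rule not given here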;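 on HepSE liver function tests abnormal: hepatic side effect score taken from the DILIps (drug-induced liver injury prediction system) training data, here covering abnormal liver function test findings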
[2] = test system: Hepatotoxicity; remark: listed apart in the source;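 on HepSE Combined Scores: combined hepatic side effect score as listed in the training data of the Drug Induced Liver Injury Prediction System (DILIps)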;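 on HepSE cholecystitis: Cholecystitis-related hepatic side effect score drawn from the DILIps (drug-induced liver injury prediction) training data set; call rule not given here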;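 on HepSE cirrhosis: cirrhosis hepatic side effect score taken from the DILIps (drug-induced liver injury prediction) training set; call rule not given here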; on HepSE hepatic failure: call rule not given here;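 on HepSE hepatic necrosis: score of hepatic side effects for hepatic necrosis, drawn from the training data of DILIps, a prediction system for drug-induced liver injury; call rule not given here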;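 on HepSE liver function tests abnormal: hepatic side effect score taken from the DILIps (drug-induced liver injury prediction system) training data, here covering abnormal liver function test findings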
[3] = test system: Hepatotoxicity; remark: listed apart in the source;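 on HepSE Combined Scores: combined hepatic side effect score as listed in the training data of the Drug Induced Liver Injury Prediction System (DILIps)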;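 on HepSE cholecystitis: Cholecystitis-related hepatic side effect score drawn from the DILIps (drug-induced liver injury prediction) training data set; call rule not given here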;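 on HepSE cirrhosis: cirrhosis hepatic side effect score taken from the DILIps (drug-induced liver injury prediction) training set; call rule not given here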; on HepSE hepatic failure: call rule not given here;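 on HepSE hepatic necrosis: score of hepatic side effects for hepatic necrosis, drawn from the training data of DILIps, a prediction system for drug-induced liver injury; call rule not given here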;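 on HepSE liver function tests abnormal: hepatic side effect score taken from the DILIps (drug-induced liver injury prediction system) training data, here covering abnormal liver function test findings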
[4] = test system: Hepatotoxicity; remark: listed apart in the source;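 on HepSE Combined Scores: combined hepatic side effect score as listed in the training data of the Drug Induced Liver Injury Prediction System (DILIps)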;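 on HepSE cholecystitis: Cholecystitis-related hepatic side effect score drawn from the DILIps (drug-induced liver injury prediction) training data set; call rule not given here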;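 on HepSE cirrhosis: cirrhosis hepatic side effect score taken from the DILIps (drug-induced liver injury prediction) training set; call rule not given here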; on HepSE hepatic failure: call rule not given here;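 on HepSE hepatic necrosis: score of hepatic side effects for hepatic necrosis, drawn from the training data of DILIps, a prediction system for drug-induced liver injury; call rule not given here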;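 on HepSE liver function tests abnormal: hepatic side effect score taken from the DILIps (drug-induced liver injury prediction system) training data, here covering abnormal liver function test findings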
[5] = test system: Hepatotoxicity; remark: listed apart in the source; on HepSE hepatic failure: call rule not given here
[6] = test system: Hepatotoxicity; remark: listed apart in the source; on HepSE hepatic failure: call rule not given here
[7] = test system: Hepatotoxicity; remark: listed apart in the source
[8] = test system: Hepatotoxicity; remark: listed apart in the source
[9] = test system: Hepatotoxicity; remark: listed apart in the source
[10] = test system: Hepatotoxicity; remark: listed apart in the source
[11] = test system: Hepatotoxicity; remark: listed apart in the source
[12] = test system: Hepatotoxicity; remark: listed apart in the source
[13] = test system: Hepatotoxicity; remark: listed apart in the source
[14] = test system: Hepatotoxicity; remark: listed apart in the source

## CCN(CC)CCNC(=O)c1c(C)[nH]c(/C=C2\C(=O)Nc3ccc(F)cc32)c1C [SUNITINIB]
[1]
  HepSE_hepatic failure: 1
[2]
  HepSE_liver function tests abnormal: 0
[3]
  HepSE_hepatic necrosis: 0
[4]
  HepSE_hepatitis: 0
[5]
  HepSE_Combined Scores: 2
[6]
  HepSE_cirrhosis: 0
[7]
  HepSE_cholecystitis: 0
[8]
  HepSE_hepatomegaly: 0
[9]
  HepSE_jaundice: 1
[10]
  HepSE_liver fatty: 0
[11]
  HepSE_liver disease: 0
[12]
  HepSE_bilirubinemia: 0
[13]
  HepSE_elevated liver function tests: 0
[14]
  HepSE_cholelithiasis: 0

## CC(C(=O)O)c1ccc(C(=O)c2cccs2)cc1 (configuration not stated) [SUPROFEN]
[1]
  HepSE_hepatic failure: 0
[2]
  HepSE_liver function tests abnormal: 0
[3]
  HepSE_hepatic necrosis: 0
[4]
  HepSE_hepatitis: 0
[5]
  HepSE_Combined Scores: 0
[6]
  HepSE_cirrhosis: 0
[7]
  HepSE_cholecystitis: 0
[8]
  HepSE_hepatomegaly: 0
[9]
  HepSE_jaundice: 0
[10]
  HepSE_liver fatty: 0
[11]
  HepSE_liver disease: 0
[12]
  HepSE_bilirubinemia: 0
[13]
  HepSE_elevated liver function tests: 0
[14]
  HepSE_cholelithiasis: 0

## C[N+](C)(C)CCOC(=O)CCC(=O)OCC[N+](C)(C)C [SUXAMETHONIUM]
[1]
  HepSE_hepatic failure: 0
[2]
  HepSE_liver function tests abnormal: 0
[3]
  HepSE_hepatic necrosis: 0
[4]
  HepSE_hepatitis: 0
[5]
  HepSE_Combined Scores: 0
[6]
  HepSE_cirrhosis: 0
[7]
  HepSE_cholecystitis: 0
[8]
  HepSE_hepatomegaly: 0
[9]
  HepSE_jaundice: 0
[10]
  HepSE_liver fatty: 0
[11]
  HepSE_liver disease: 0
[12]
  HepSE_bilirubinemia: 0
[13]
  HepSE_elevated liver function tests: 0
[14]
  HepSE_cholelithiasis: 0

## Nc1c2c(nc3ccccc13)CCCC2 [TACRINE]
[1]; Liver
  HepSE_hepatic failure: 0
[2]; Liver
  HepSE_liver function tests abnormal: 0
[3]; Liver
  HepSE_hepatic necrosis: 0
[4]; Liver
  HepSE_hepatitis: 0
[5]; Liver
  HepSE_Combined Scores: 2
[6]; Liver
  HepSE_cirrhosis: 0
[7]; Liver
  HepSE_cholecystitis: 1
[8]; Liver
  HepSE_hepatomegaly: 0
[9]; Liver
  HepSE_jaundice: 0
[10]; Liver
  HepSE_liver fatty: 0
[11]; Liver
  HepSE_liver disease: 0
[12]; Liver
  HepSE_bilirubinemia: 0
[13]; Liver
  HepSE_elevated liver function tests: 0
[14]; Liver
  HepSE_cholelithiasis: 1

## C=CC[C@@H]1/C=C(\C)C[C@H](C)C[C@H](OC)[C@H]2O[C@@](O)(C(=O)C(=O)N3CCCC[C@H]3C(=O)O[C@H](/C(C)=C/[C@@H]3CC[C@@H](O)[C@H](OC)C3)[C@H](C)[C@@H](O)CC1=O)[C@H](C)C[C@@H]2OC [TACROLIMUS ANHYDROUS]
[1]
  HepSE_hepatic failure: 0
[2]
  HepSE_liver function tests abnormal: 1
[3]
  HepSE_hepatic necrosis: 1
[4]
  HepSE_hepatitis: 1
[5]
  HepSE_Combined Scores: 7
[6]
  HepSE_cirrhosis: 0
[7]
  HepSE_cholecystitis: 0
[8]
  HepSE_hepatomegaly: 0
[9]
  HepSE_jaundice: 1
[10]
  HepSE_liver fatty: 1
[11]
  HepSE_liver disease: 1
[12]
  HepSE_bilirubinemia: 1
[13]
  HepSE_elevated liver function tests: 0
[14]
  HepSE_cholelithiasis: 0

## CCOc1ccccc1OCCN[C@H](C)Cc1ccc(OC)c(S(N)(=O)=O)c1 [TAMSULOSIN]
[1]
  HepSE_hepatic failure: 0
[2]
  HepSE_liver function tests abnormal: 0
[3]
  HepSE_hepatic necrosis: 0
[4]
  HepSE_hepatitis: 0
[5]
  HepSE_Combined Scores: 0
[6]
  HepSE_cirrhosis: 0
[7]
  HepSE_cholecystitis: 0
[8]
  HepSE_hepatomegaly: 0
[9]
  HepSE_jaundice: 0
[10]
  HepSE_liver fatty: 0
[11]
  HepSE_liver disease: 0
[12]
  HepSE_bilirubinemia: 0
[13]
  HepSE_elevated liver function tests: 0
[14]
  HepSE_cholelithiasis: 0

## CCOC(=O)c1ccc(C#Cc2ccc3c(c2)C(C)(C)CCS3)nc1 [TAZAROTENE]
[1]
  HepSE_hepatic failure: 0
[2]
  HepSE_liver function tests abnormal: 0
[3]
  HepSE_hepatic necrosis: 0
[4]
  HepSE_hepatitis: 0
[5]
  HepSE_Combined Scores: 0
[6]
  HepSE_cirrhosis: 0
[7]
  HepSE_cholecystitis: 0
[8]
  HepSE_hepatomegaly: 0
[9]
  HepSE_jaundice: 0
[10]
  HepSE_liver fatty: 0
[11]
  HepSE_liver disease: 0
[12]
  HepSE_bilirubinemia: 0
[13]
  HepSE_elevated liver function tests: 0
[14]
  HepSE_cholelithiasis: 0

## CCCCCNC(=N)N/N=C/c1c[nH]c2ccc(OC)cc12 [TEGASEROD]
[1]
  HepSE_hepatic failure: 0
[2]
  HepSE_liver function tests abnormal: 0
[3]
  HepSE_hepatic necrosis: 0
[4]
  HepSE_hepatitis: 1
[5]
  HepSE_Combined Scores: 4
[6]
  HepSE_cirrhosis: 0
[7]
  HepSE_cholecystitis: 1
[8]
  HepSE_hepatomegaly: 0
[9]
  HepSE_jaundice: 0
[10]
  HepSE_liver fatty: 0
[11]
  HepSE_liver disease: 0
[12]
  HepSE_bilirubinemia: 1
[13]
  HepSE_elevated liver function tests: 0
[14]
  HepSE_cholelithiasis: 1
